According to US11168073B2, “3,3-difluoroallylamines or salts thereof and pharmaceutical compositions comprising the same” (YUHAN CORPORATION, priority 2018, dated 2021):
Structures can show the parent of a compound that is named as a salt.

What was measured:
Type in all cases: biochemical
[1] = target: T1, recombinant human VAP-1 (Homo sapiens, UniProt Q16853); test: Activity evaluation on recombinant human VAP-1 (Amplex Red/HRP-coupled hydrogen peroxide assay, benzylamine substrate); conditions: recombinant human VAP-1; 30 min preincubation at 37° C.; 1 mM benzylamine; read-out: Inhibitory Activity (IC50, nM) human VAP-1
T1 construct: purchased R&D systems
T1 sequence (Q16853 1-763): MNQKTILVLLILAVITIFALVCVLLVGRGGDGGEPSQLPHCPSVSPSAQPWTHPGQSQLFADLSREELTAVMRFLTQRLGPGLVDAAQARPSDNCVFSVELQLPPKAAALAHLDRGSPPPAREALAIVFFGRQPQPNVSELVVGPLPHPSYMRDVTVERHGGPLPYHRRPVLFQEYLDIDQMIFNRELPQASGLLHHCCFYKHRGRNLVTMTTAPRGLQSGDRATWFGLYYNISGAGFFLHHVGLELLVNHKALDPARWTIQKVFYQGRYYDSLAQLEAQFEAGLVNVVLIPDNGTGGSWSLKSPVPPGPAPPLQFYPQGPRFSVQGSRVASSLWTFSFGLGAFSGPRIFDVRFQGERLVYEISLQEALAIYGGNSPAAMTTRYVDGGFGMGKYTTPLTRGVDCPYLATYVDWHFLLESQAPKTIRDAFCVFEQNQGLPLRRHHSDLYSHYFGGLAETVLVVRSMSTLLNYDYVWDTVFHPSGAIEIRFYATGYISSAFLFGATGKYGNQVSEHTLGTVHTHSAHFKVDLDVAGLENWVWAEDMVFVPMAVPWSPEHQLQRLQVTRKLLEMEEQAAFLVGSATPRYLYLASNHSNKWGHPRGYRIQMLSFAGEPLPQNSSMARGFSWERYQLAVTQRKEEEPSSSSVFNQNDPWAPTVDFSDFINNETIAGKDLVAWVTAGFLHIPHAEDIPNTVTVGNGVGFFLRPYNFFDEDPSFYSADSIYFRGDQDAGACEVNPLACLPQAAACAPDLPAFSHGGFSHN
Protocol: (§1) The compounds according to the present technology were evaluated in terms of activity on recombinant human VAP-1 (R&D systems) by measuring the level of hydrogen peroxide in horseradish peroxidase (HRP)-coupled reaction using Amplex Red Hydrogen Peroxide Assay Kit (Molecular Probes, Invitrogen, USA). The experiment was carried out at room temperature using benzylamine as a substrate. In the HRP-coupled reaction, hydrogen peroxide oxidation of 10-acetyl-3,7-dihydroxyphenoxazine (Amplex Red reagent) produces resorufin, which is a highly fluorescent compound. Briefly, the test compound was dissolved in dimethyl sulfoxide (DMSO) at a concentration of 20 mM. The dose-response assessment was made by 1:3 serial dilution in DMSO, thereby creating a 8 point curve. The concentration of the upper part was controlled according to the efficacy of the compounds, followed by the dilution with a reaction buffer solution to obtain a final DMSO concentration of less than 1%. To each well of a 96 black well plate, human VAP-1 purified in 50 mM sodium phosphate buffer solution (pH7.4) was added. The test compounds dissolved in DMSO were incubated with the human VAP-1 enzymes at 37° C. for 30 minutes. After 30-minute incubation, each well was added with a reaction mixture containing 200 uM Amplex Red reagent prepared from 50 mM sodium phosphate buffer solution (pH 7.4), 1 mM benzylamine, and 1 U/mL HRP. Fluorescence intensity was measured at several time points during 1-2 hours using a microplate reader (Flexstation3, Molecular Devices) under the wavelength condition exciting at 544 nm and reading the emission at 590 nm. The inhibitory effect of the compounds was measured as a decrease (%) in the signal rate as compared to the control group without any inhibitor (only diluted DMSO). Data was fixed to a logistic model with four variables and IC50 value was calculated using GraphPad Prism program.

[2] = target: T2, recombinant human MAO-A (monoamine oxidase-A) (Homo sapiens, UniProt P21397); test: Activity evaluation on recombinant human MAO-A (Amplex Red/HRP-coupled assay, 0.5 mM tyramine substrate); conditions: 0.5 mM tyramine, read-out: Inhibitory Activity (IC50, nM) MAO-A
T2 construct: purchased Sigma-Aldrich
T2 sequence (P21397 1-527): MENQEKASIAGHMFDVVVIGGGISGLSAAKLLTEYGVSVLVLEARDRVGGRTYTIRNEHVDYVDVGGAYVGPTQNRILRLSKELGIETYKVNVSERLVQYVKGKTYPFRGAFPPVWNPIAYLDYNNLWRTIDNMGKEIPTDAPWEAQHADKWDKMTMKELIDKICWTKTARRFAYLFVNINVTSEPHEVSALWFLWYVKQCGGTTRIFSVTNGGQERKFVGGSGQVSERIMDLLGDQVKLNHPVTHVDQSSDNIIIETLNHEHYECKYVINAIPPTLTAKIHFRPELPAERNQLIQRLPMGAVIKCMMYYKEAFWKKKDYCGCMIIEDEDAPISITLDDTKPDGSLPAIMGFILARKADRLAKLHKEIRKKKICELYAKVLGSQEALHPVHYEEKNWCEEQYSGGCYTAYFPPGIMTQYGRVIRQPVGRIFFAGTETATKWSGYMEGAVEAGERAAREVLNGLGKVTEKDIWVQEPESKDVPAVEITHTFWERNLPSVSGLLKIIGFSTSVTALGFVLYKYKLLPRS
Protocol: as §1
(§2) In addition, the compounds according to the present technology were evaluated in terms of activity on a recombinant human MAO-A (monoamine oxidase-A, Sigma-Aldrich) and a recombinant human MAO-B (monoamine oxidase-B, Sigma-Aldrich) by using as substrates, 0.5 mM tyramine and 1 mM benzylamine, respectively, with a method similar to the activity evaluation method for recombinant human VAP-1. The compounds according to the present technology were also evaluated in terms of activity on a recombinant human DAO (diamine oxidase, R&D systems) by using as a substrate 1 mM putrescine with a method similar to the activity evaluation method for recombinant human VAP-1.

[3] = target: T3, recombinant human MAO-B (monoamine oxidase-B) (Homo sapiens, UniProt P27338); test: Activity evaluation on recombinant human MAO-B (Amplex Red/HRP-coupled assay, 1 mM benzylamine substrate); conditions: 1 mM benzylamine, read-out: Inhibitory Activity (IC50, nM) MAO-B
T3 construct: purchased Sigma-Aldrich
T3 sequence (P27338 1-520): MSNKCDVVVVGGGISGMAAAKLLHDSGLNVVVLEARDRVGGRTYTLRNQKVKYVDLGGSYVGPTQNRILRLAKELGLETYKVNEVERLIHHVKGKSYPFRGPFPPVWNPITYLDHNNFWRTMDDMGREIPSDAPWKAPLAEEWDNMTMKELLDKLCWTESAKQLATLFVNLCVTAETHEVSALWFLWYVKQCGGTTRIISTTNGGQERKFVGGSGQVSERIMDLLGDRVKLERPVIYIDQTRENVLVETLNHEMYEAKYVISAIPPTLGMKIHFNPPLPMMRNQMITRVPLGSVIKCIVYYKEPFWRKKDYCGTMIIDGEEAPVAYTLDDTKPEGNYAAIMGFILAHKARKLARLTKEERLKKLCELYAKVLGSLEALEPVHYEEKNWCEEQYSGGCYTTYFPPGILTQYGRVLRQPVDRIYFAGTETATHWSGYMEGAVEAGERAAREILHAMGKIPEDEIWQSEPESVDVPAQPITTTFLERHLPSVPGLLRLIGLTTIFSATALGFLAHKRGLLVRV
Protocol: as §1, §2

[4] = target: T4, recombinant human DAO (diamine oxidase) (Homo sapiens, UniProt P19801); test: Activity evaluation on recombinant human DAO (Amplex Red/HRP-coupled assay, 1 mM putrescine substrate); conditions: 1 mM putrescine, read-out: Inhibitory Activity (IC50, nM) DAO
T4 construct: purchased R&D systems
T4 sequence (P19801 20-751): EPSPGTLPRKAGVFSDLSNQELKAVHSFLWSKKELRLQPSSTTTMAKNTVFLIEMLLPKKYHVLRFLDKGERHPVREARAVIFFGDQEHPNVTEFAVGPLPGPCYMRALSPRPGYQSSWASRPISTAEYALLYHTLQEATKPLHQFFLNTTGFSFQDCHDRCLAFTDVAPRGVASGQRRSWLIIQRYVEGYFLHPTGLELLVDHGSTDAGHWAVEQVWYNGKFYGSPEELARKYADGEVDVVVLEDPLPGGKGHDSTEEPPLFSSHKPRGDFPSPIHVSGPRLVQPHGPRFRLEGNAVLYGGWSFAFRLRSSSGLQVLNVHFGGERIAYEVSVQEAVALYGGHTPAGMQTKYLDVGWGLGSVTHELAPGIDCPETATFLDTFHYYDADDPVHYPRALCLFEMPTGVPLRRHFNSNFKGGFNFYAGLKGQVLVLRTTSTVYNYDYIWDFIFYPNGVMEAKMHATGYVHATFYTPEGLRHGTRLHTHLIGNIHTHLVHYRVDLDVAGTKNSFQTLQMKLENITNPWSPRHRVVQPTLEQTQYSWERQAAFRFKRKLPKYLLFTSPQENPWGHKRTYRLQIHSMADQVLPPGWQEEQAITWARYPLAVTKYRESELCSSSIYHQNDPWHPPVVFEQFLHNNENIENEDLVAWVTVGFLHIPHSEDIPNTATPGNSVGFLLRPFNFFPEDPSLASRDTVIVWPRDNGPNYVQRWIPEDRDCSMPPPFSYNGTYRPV
Protocol: as §1, §2

IC50 [1] [nM] | IC50 [2] [nM] | IC50 [3] [nM] | IC50 [4] [nM] | SMILES
43 | > 100000 | > 10000 | 55000 | Cc1cc(Br)ncc1-n1cnn(CC(CN)=C(F)F)c1=O [Example 12, 2-[2-(aminomethyl)-3,3-difluoro-allyl]-4-(6-bromo-4-methyl-3-pyridyl)-1,2,4-triazol-3-one Trifluoroacetate]
3.6 | > 100000 | 3600 | 910 | Cc1cc(-n2cnn(CC(CN)=C(F)F)c2=O)cnc1Br [Example 13, 2-[2-(aminomethyl)-3,3-difluoro-allyl]-4-(6-bromo-5-methyl-3-pyridyl)-1,2,4-triazol-3-one Trifluoroacetate]
1.4 | > 100000 | 40000 | 4100 | NCC(Cn1ncn(-c2ncc(Br)cc2F)c1=O)=C(F)F [Example 14, 2-[2-(aminomethyl)-3,3-difluoro-allyl]-4-(5-bromo-3-fluoro-2-pyridyl)-1,2,4-triazol-3-one Trifluoroacetate]
3 | > 100000 | > 100000 | > 100000 | Cc1ccc(Br)nc1-n1cnn(CC(CN)=C(F)F)c1=O [Example 15, 2-[2-(aminomethyl)-3,3-difluoro-allyl]-4-(6-bromo-3-methyl-2-pyridyl)-1,2,4-triazol-3-one Trifluoroacetate]
4.6 | > 100000 | 38000 | 1100 | NCC(Cn1ncn(-c2cnc(Br)cn2)c1=O)=C(F)F [Example 16, 2-[2-(aminomethyl)-3,3-difluoro-allyl]-4-(5-bromopyrazin-2-yl)-1,2,4-triazol-3-one Trifluoroacetate]
12 | > 100000 | > 10000 | 1300 | CS(=O)(=O)c1ccc(-c2cccc(-n3cnn(CC(CN)=C(F)F)c3=O)c2)cc1 [Example 17, 2-[2-(aminomethyl)-3,3-difluoro-allyl]-4-[3-(4-methylsulfonylphenyl)phenyl]-1,2,4-triazol-3-one Trifluoroacetate]
15 | > 100000 | > 100000 | 13000 | NCC(Cn1ncn(-c2cccc(-c3ccc(N4CCNCC4)cc3)c2)c1=O)=C(F)F [Example 18, 2-[2-(aminomethyl)-3,3-difluoro-allyl]-4-[3-(4-piperazin-1-ylphenyl)phenyl]-1,2,4-triazol-3-one Ditrifluoroacetate]
5.3 | > 100000 | > 10000 | 240 | NCC(Cn1ncn(-c2cccc(-c3ccc(C(F)(F)F)nc3)c2)c1=O)=C(F)F [Example 19, 2-[2-(aminomethyl)-3,3-difluoro-allyl]-4-[3-[6-(trifluoromethyl)-3-pyridyl]phenyl]-1,2,4-triazol-3-one Trifluoroacetate]
2.1 | > 100000 | > 100000 | 350 | CN(C)c1ccc(-c2cccc(-n3cnn(CC(CN)=C(F)F)c3=O)c2)cn1 [Example 20, 2-[2-(aminomethyl)-3,3-difluoro-allyl]-4-[3-[6-(dimethylamino)-3-pyridyl]phenyl]-1,2,4-triazol-3-one Trifluoroacetate]
2.5 | 36200 | 18000 | 6300 | NCC(Cn1ncn(-c2cccc(-c3ccc4c(c3)OCO4)c2)c1=O)=C(F)F [Example 21, 2-[2-(aminomethyl)-3,3-difluoro-allyl]-4-[3-(1,3-benzodioxol-5-yl)phenyl]-1,2,4-triazol-3-one Trifluoroacetate]
0.8 | > 100000 | > 100000 | > 10000 | Cc1cc(-c2cccc(-n3cnn(CC(CN)=C(F)F)c3=O)c2)cc2c1NC(=O)CC2 [Example 22, 6-[3-[1-[2-(aminomethyl)-3,3-difluoro-allyl]-5-oxo-1,2,4-triazol-4-yl]phenyl]-8-methyl-3,4-dihydro-1H-quinolin-2-one Trifluoroacetate]
3.1 | > 100000 | > 100000 | 8400 | CCn1cc(-c2cccc(-n3cnn(CC(CN)=C(F)F)c3=O)c2)cn1 [Example 23, 2-[2-(aminomethyl)-3,3-difluoro-allyl]-4-[3-(1-ethylpyrazol-4-yl)phenyl]-1,2,4-triazol-3-one Trifluoroacetate]
